Results on twelve compounds are retold here after PubChem BioAssay (NCI).

Among the test systems are NCI-H460 lung; 786-0 renal; UACC-62 melanoma; HCC-2998 colon; HOP-62 NSCLC; LOX IMVI melanoma; COLO 205 colon; SNB-75 CNS; HCT-116 colon; DU-145 prostate.
Holding throughout (experiment): growth of human tumour cells (NCI), 48 h

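Interpolation was linear, between the two tested concentrations surrounding the appropriate level; five concentrations were tested over 48 hours in 96-well plates. GI50 is the concentration that inhibits growth by half. TGI: total growth inhibition.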

Regarding `Cc1ccc(C2=Nc3ccccc3SC(c3cccc4c3OCO4)C2)cc1` (stereo not drawn), the TGI in the assay with NCI-H460 lung was over 100 µM; in the assay on 786-0 renal, 39.9 µM; in the assay on UACC-62 melanoma, 41.9 µM; in the assay with HCC-2998 colon, 41.3 µM; in the assay with HOP-62 NSCLC it was over 100 µM; in the assay on LOX IMVI melanoma, 31.1 µM. In addition, the TGI in the assay on COLO 205 colon turned out to be 35.6 µM; in the assay on SNB-75 CNS, 28.8 µM.
As to `Cc1cc2c(c(=O)o1)C1=S(SC(c3ccccc3)=C1)S2` (stereo not drawn), the TGI in the assay on NCI-H460 lung is over 100 µM; in the assay with 786-0 renal, 28.8 µM; in the assay with UACC-62 melanoma, over 100 µM; with HOP-62 NSCLC, 45.5 µM; in the assay with HCT-116 colon it was 60.6 µM; with LOX IMVI melanoma, over 100 µM. The values for the TGI with COLO 205 colon, in the assay on DU-145 prostate and with SNB-75 CNS were over 100 µM, over 100 µM and 94.5 µM, respectively.
For `O=C(CO)C1CC2C=CC1C2` (stereo not drawn), the TGI in the assay with NCI-H460 lung, in the assay on 786-0 renal, with UACC-62 melanoma, in the assay on HOP-62 NSCLC, in the assay on HCT-116 colon and in the assay with LOX IMVI melanoma was over 100 µM each time. In addition, the TGI in the assay with COLO 205 colon and in the assay with SNB-75 CNS was over 100 µM in each case.
With `O=[N+]([O-])c1cc(Cc2cc([N+](=O)[O-])c3cccnc3c2O)c(O)c2ncccc12`, the TGI in the assay with NCI-H460 lung was 9.4 µM; in the assay on 786-0 renal, over 54.3 µM; in the assay on UACC-62 melanoma, 27.6 µM; with HOP-62 NSCLC, 42.4 µM; in the assay on HCT-116 colon it was 16.9 µM; with LOX IMVI melanoma it was over 66.2 µM. The results for the TGI in the assay with COLO 205 colon, in the assay on DU-145 prostate and in the assay with SNB-75 CNS were 56 µM, 54 µM and 24.9 µM, respectively.
Take `N#CNC1=NC(N)C(c2nc3ccccc3[nH]2)=C(CCCC(=O)Nc2cccc([N+](=O)[O-])c2)N1` (stereo not drawn): the TGI in the assay with NCI-H460 lung, in the assay with 786-0 renal, with UACC-62 melanoma, with HCC-2998 colon, in the assay with HOP-62 NSCLC and with LOX IMVI melanoma was over 100 µM throughout. Also, the TGI in the assay with COLO 205 colon and in the assay with SNB-75 CNS was over 100 µM in each case.
Regarding `Cc1ccc(NC(=O)/C(C#N)=C/c2ccccc2)c(C)c1`, the TGI with NCI-H460 lung, in the assay with 786-0 renal, in the assay on UACC-62 melanoma, in the assay on HCC-2998 colon, in the assay with HOP-62 NSCLC and with HCT-116 colon was over 100 µM each time. Moreover, the TGI with COLO 205 colon and in the assay with SNB-75 CNS was over 100 µM in each case.
Consider `CCOC(=O)C(CCCNC(=O)OC(C)(C)C)N(Cc1ccc(OC)cc1OC)C(=O)CC(=O)CP(=O)(OCC)OCC` (stereo not drawn), for which the TGI with NCI-H460 lung, in the assay with 786-0 renal, with UACC-62 melanoma, in the assay with HCC-2998 colon, with HOP-62 NSCLC and with HCT-116 colon was over 100 µM each time. For the same compound, the TGI in the assay on LOX IMVI melanoma, with COLO 205 colon and in the assay with SNB-75 CNS was over 100 µM each time.
`c1ccc(-c2csc3ncn4cnnc4c23)cc1`: the TGI in the assay with 786-0 renal, in the assay with UACC-62 melanoma, in the assay with HCC-2998 colon, in the assay with HCT-116 colon, in the assay with LOX IMVI melanoma and in the assay with COLO 205 colon was over 100 µM in each case. In the assay on SNB-75 CNS, this compound showed a TGI of 89.3 µM.
As for `CN1CCCC1c1cccnc1.O=C(O)c1ccccc1O.O=C([O-])c1ccccc1[OH2+].O=C([O-])c1ccccc1[OH2+].[Mn+2]` (stereo not drawn), the GI50 in the assay with 786-0 renal, in the assay on UACC-62 melanoma, in the assay with HOP-62 NSCLC, with HCT-116 colon, in the assay with LOX IMVI melanoma and in the assay with COLO 205 colon was over 100 µM throughout. Also, the GI50 in the assay on DU-145 prostate and in the assay on SNB-75 CNS was over 100 µM each time. For the same compound, the TGI in the assay with 786-0 renal, with UACC-62 melanoma, in the assay with HOP-62 NSCLC, in the assay on HCT-116 colon, in the assay with LOX IMVI melanoma and with COLO 205 colon was over 100 µM throughout. For the same compound, the TGI with DU-145 prostate and in the assay on SNB-75 CNS was over 100 µM each time.
On to `CC1CCC2C(CN(CC3=C(C(F)(F)F)OC4OC5(C)CCC6C(C)CCC3C46OO5)CC3=C(C(F)(F)F)OC4OC5(C)CCC6C(C)CCC3C46OO5)=C(C(F)(F)F)OC3OC4(C)CCC1C32OO4` (stereo not drawn), for which the GI50 with NCI-H460 lung is 12.9 µM; in the assay on 786-0 renal, 8.48 µM; in the assay on HOP-62 NSCLC it was 28.3 µM; with HCT-116 colon it was 11.6 µM; with COLO 205 colon, 7.64 µM; with SNB-75 CNS, 81.6 µM. Besides, the TGI with NCI-H460 lung is 30 µM; with 786-0 renal, 21.9 µM; with HOP-62 NSCLC it was 71.9 µM; in the assay on HCT-116 colon, 24.5 µM; with COLO 205 colon it was 28.6 µM; in the assay on SNB-75 CNS it was over 100 µM.
With `Clc1ccc([I+]c2ccc(Cl)cc2Cl)c(Cl)c1`, the GI50 in the assay on NCI-H460 lung is 2.35 µM; in the assay on 786-0 renal, 2.09 µM; in the assay on HOP-62 NSCLC, 2.27 µM; with HCT-116 colon, 1.85 µM; in the assay on LOX IMVI melanoma, 1.77 µM; in the assay with COLO 205 colon, 1.95 µM. Also, the GI50 is 1.92 µM in the assay with DU-145 prostate and 1.88 µM in the assay with SNB-75 CNS. In addition, the TGI was found to be 5.39 µM in the assay with NCI-H460 lung; 4.36 µM in the assay on 786-0 renal; 4.91 µM in the assay with HOP-62 NSCLC; 3.67 µM in the assay with HCT-116 colon; 3.36 µM with LOX IMVI melanoma; 3.64 µM in the assay with COLO 205 colon. The values for the TGI with DU-145 prostate and with SNB-75 CNS were 3.51 µM and 5.39 µM, respectively.
Turning to `COc1cc(/C=C/C(=O)O[C@H]2[C@H](O[C@@H]3O[C@@H](C)[C@H](O)[C@@H](O)[C@H]3O)[C@@H](O)[C@H](OCCc3ccc(O)c(O)c3)O[C@@H]2COC2OCC(O)(CO)C2O)ccc1O` (stereo partly drawn), the GI50 in the assay on NCI-H460 lung is over 100 µM; in the assay with 786-0 renal it was over 100 µM; in the assay on UACC-62 melanoma it was over 100 µM; in the assay with HOP-62 NSCLC, over 100 µM; with HCT-116 colon, over 100 µM; in the assay with LOX IMVI melanoma, 21.6 µM. For the same compound, the GI50 in the assay with COLO 205 colon, with DU-145 prostate and in the assay on SNB-75 CNS was over 100 µM each time. Also, the TGI in the assay with NCI-H460 lung is over 100 µM; in the assay on 786-0 renal, over 100 µM; in the assay on UACC-62 melanoma, over 100 µM; in the assay with HOP-62 NSCLC it was over 100 µM; in the assay on HCT-116 colon, over 100 µM; in the assay with LOX IMVI melanoma it was 53.6 µM. In addition, the TGI in the assay on COLO 205 colon, with DU-145 prostate and with SNB-75 CNS was over 100 µM throughout.
